Assay results taken from US20250326722A1 (SHANGHAI HANSOH BIOMEDICAL CO., LTD., priority 2022, published 2025).

How the values were obtained:
PCSK9 protein = PCSK9 protein (Homo sapiens (Human), UniProt Q8NBP7); experiment: Binding experiment: surface plasmon resonance (SPR) binding to PCSK9 protein
Source text: • 1. Experimental objective: To detect the action of compounds to bind PCSK9 protein by a conventional surface plasmon resonance (SPR) method.

[1] = biological target: PCSK9 secreted by HepG2 cells (Homo sapiens (Human), UniProt Q8NBP7); experiment: Effect on the concentration of PCSK9 secreted by HepG2 cells (ELISA); type: cell-based; conditions: 48 hours incubation, read-out: Inhibitory activity on PCSK9, IC50
[2] = test system: LDLR level in HepG2 cells; experiment: Effect on the LDLR level in HepG2 cells (ELISA); type: cell-based, human; parameters: concentration or dose not given beside the values; conditions: 48 hours incubation, LDLR ELISA of lysate
Procedure: To detect the effect of the compounds on the LDLR protein level.
Envision (PE-Cisbio: 2105-0020), centrifuge (Eppendorf: 5810R), water purifier (THERMO: Pacific T II+Micropure), plate washer (Thermo: […] VERSA), and microplate shaker (Thermo: 88882006)
• 1) HepG2 cell strain was cultured in the complete culture medium at 37° C., 5% CO2 to 70-90% confluence. • 2) The cells were digested and resuspended in the experimental culture medium, inoculation was performed at 25,000 cells/well/200 μL in a 96-well cell culture plate, and the cells were cultured at 37° C., 5% CO2 for 20-24 hours. • 3) The culture medium was removed from the cell culture plate, and the cell culture plate was washed once by adding 200 μl of the experimental culture medium to each well. • 4) Preparation of positive control compound and compound to be tested: the positive control compound and the compound to be tested were diluted on the compound plate. • 5) The diluted compound was added to the cell culture plate at 250 μL per well and incubated at 37° C. and 5% CO2 for 48 hours. • 6) The cell culture medium was removed, the cells were washed with PBS, and 50 μL of the cell lysis buffer and the protein inhibitor were added. • 7) After centrifugation, the lysate was removed and the sample was stored for later use. • 8) Preparation of standard curve: corresponding volumes of Dilution buffer were successively added to respective standard tubes, and the standard was diluted in series by taking the corresponding volume from the original tube or the last concentration tube. • 9) Preparation of washing liquid: 10× Wash buffer was diluted into 1× with Milli-Q for later use. • 10) According to the standard curve wells and sample wells set according to a plate map, 80 μL/well of the corresponding standards and samples were added to the wells, with 2 replicate wells. A well in which no standard was added was used as a background value well. A self-adhesive seal was applied, the plate was placed on a plate shaker at room temperature, gently shaken, uniformly mixed, and incubated for 2 hours. • 11) The plate was placed on the plate washer, the washing liquid was set to 350 μL per well, and the plate was washed 4 times repeatedly. • 12) 200 μL of Human LDLR conjugate was added, a self-adhesive seal was applied, and the plate was placed on the plate shaker, well mixed uniformly, and incubated for 2 hours. • 13) The plate was placed on the plate washer, the washing liquid was set to 350 μL per well, and the plate was washed 4 times repeatedly. • 14) 200 μL/well of Substrate solution was added, and the plate was placed in the dark, applied with a self-adhesive seal, placed on the plate shaker, well mixed uniformly, and incubated for 20 minutes. • 15) 50 μL/well of Stop solution was added and mixed uniformly over 20 min. • 16) The optical density (OD) value in each well was measured in sequence at a wavelength of 450 nm by the microplate reader.
After the OD values were read by the microplate reader, the OD value of the 0-concentration standard in the standard group was subtracted from the OD values of the standards, control group, and samples to obtain the actual OD values for these wells. A standard curve was plotted with Graphpad and the concentration of the sample was calculated. If the dilution was performed during the sample detection, the calculated sample concentration was necessarily multiplied by the corresponding dilution ratio in the final calculation, which was the actual concentration of the sample. Concentration increase %=(actual concentration in control-actual concentration in sample)/actual concentration in control*100.

[3] = test system: hyperlipidemia animal model of B6-hPCSK9 transgenic mice; experiment: In vivo pharmacodynamics in hyperlipidemia animal model of B6-hPCSK9 transgenic mice; parameters: species or system B6-hPCSK9 transgenic C57 mice; conditions: PO administration, Day 14, high-fat feed
Procedure: The compounds of the present disclosure were evaluated for in vivo pharmacodynamics in a hyperlipidemia animal model of B6-hPCSK9 transgenic mice.
B6-hPCSK9 transgenic C57 mice, 6-8 weeks old, male, purchased from Jiangsu GemPharmatech Co., Ltd.
After delivery to a barrier system, the animals were given one week for acclimatization and began to feed on the high-fat feed. The body weight and feed weight were weighed once a week, and the body weight and food intake thereof were recorded.
a. The animals were grouped by a random grouping method.
c. According to the grouping results, administration with the test drug was started (mode of administration: oral administration; administration volume: 10 mL/kg; frequency of administration: once/day or single administration; administration cycle: 21 days; vehicle: 10% Solutol HS 15/90% Saline).
d. After the test drug was administered, the body weight and feed weight were weighed twice a week and blood was taken once a week.
e. The data was processed with software such as Excel. […] PCSK9 in plasma was detected by ELISA.

[4] = Pharmacokinetic determination in mice (plasma); type: in vivo, C57BL/6J mice; conditions: C57 mice, PO administration, 5 mpk; for AUC(0-inf) / half-life / MRT / Cmax: male, C57BL/6J, mouse, 5 mg/kg; for AUC(0-inf): read-out: Area under the curve AUC0-∞; for half-life: read-out: Half-life t1/2 (converted); for MRT: read-out: Mean residence time MRT; for Cmax: read-out: Plasma concentration Cmax
Procedure, shortened: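 Male C57BL/6J mice (n=3 per route), fasted overnight, got 5 mg/kg PO in 10% Solutol HS15 or 1 mg/kg IV in 5% DMSO/10% Solutol HS15/85% PBS. Orbital blood was sampled at 0.083 (IV only), 0.25, 0.5, 1, 2, 4, 8 and 24 h. EDTA-K2 plasma was quantified by LC-MS/MS for PK parameters.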

Chain of PCSK9 protein (Q8NBP7 153-692): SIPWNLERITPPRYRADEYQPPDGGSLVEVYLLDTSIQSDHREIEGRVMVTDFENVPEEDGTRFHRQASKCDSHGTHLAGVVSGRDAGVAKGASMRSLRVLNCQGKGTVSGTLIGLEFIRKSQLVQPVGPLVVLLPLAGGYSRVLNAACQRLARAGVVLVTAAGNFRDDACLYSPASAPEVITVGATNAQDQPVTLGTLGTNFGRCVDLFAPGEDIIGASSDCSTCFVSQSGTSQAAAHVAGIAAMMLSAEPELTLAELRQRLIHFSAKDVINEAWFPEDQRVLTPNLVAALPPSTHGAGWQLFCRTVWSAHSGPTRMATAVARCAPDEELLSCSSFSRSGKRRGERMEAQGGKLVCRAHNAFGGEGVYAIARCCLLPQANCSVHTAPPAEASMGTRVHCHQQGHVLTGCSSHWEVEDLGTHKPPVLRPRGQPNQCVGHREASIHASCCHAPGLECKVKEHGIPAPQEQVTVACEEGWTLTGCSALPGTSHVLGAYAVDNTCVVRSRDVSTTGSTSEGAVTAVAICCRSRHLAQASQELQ
Chain of PCSK9 secreted by HepG2 cells (Q8NBP7 153-692): as above
Chain of PCSK9 secreted by HepG2 cells (Q8NBP7 31-152 partner): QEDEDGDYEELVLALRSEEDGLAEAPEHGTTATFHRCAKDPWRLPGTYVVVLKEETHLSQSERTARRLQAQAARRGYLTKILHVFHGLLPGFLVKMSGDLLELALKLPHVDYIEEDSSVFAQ

| Kd (PCSK9 protein) | IC50 [1] | Time to peak tmax [4] | AUC(0-inf) [4] | half-life [4] | MRT [4] | Cmax [4] | SMILES | LDLR expression level [2] | LDL-C change, Day 14 ([3]; 6 mpk) | LDL-C change, Day 14 ([3]; 3 mpk) | LDL-C change, Day 14 ([3]; 5 mpk) | LDL-C change, Day 14 ([3]; 10 mpk) |
| --- | --- | --- | --- | --- | --- | --- | --- | --- | --- | --- | --- | --- |
| 1.5 nM | – | 0.25 h | 8080 ng·h/mL | 4.3 h | 2.1 h | 4720 ng/mL | O=C1c2cccnc2CN1c1ccc(N[C@H]2CC[C@H](Nc3ncc(OC(F)F)cn3)C2)nc1 [Example 77, 6-(6-(((1S,3S)-3-((5-(difluoromethoxy)pyrimidin-2-yl)amino)cyclopentyl)amino)pyridin-3-yl)-6,7-dihydro-5H-pyrrolo[3,4-b]pyridin-5-one] | 117% | – | – | – | – |
| – | 7400 nM | 0.5 h | 9640 ng·h/mL | 3.9 h | 1.5 h | 4880 ng/mL | O=C1c2ncccc2CN1c1ccc(N[C@H]2CC[C@H](Nc3nc4cc(F)ccn4n3)C2)nc1 [Example 129, 6-(6-(((1S,3S)-3-((7-fluoro-[1,2,4]triazolo[1,5-a]pyridin-2-yl)amino)cyclopentyl)amino)pyridin-3-yl)-5,6-dihydro-7H-pyrrolo[3,4-b]pyridin-7-one] | – | – | – | −21.98% | – |
| 1.2 nM | – | 1 h | 11600 ng·h/mL | 3.9 h | 2.2 h | 3870 ng/mL | O=C1c2ncccc2CN1c1ccc(N[C@H]2CC[C@H](Nc3nc4cc(C(F)(F)F)ccn4n3)C2)nc1 [Example 143, 6-(6-(((1S,3S)-3-((7-(trifluoromethyl)-[1,2,4]triazolo[1,5-a]pyridin-2-yl)amino)cyclopentyl)amino)pyridin-3-yl)-5,6-dihydro-7H-pyrrolo[3,4-b]pyridin-7-one] | – | – | – | – | −34.97% |
| 1.4 nM | 15500 nM | 0.5 h | 24200 ng·h/mL | 4.8 h | 2.4 h | 12300 ng/mL | Cc1nccc2c1CN(c1ccc(N[C@H]3CC[C@H](Nc4nc5cc(F)ccn5n4)C3)nc1)C2=O [Example 149, 2-(6-(((1S,3S)-3-((7-fluoro-[1,2,4]triazolo[1,5-a]pyridin-2-yl)amino)cyclopentyl)amino)pyridin-3-yl)-4-methyl-2,3-dihydro-1H-pyrrolo[3,4-c]pyridin-1-one] | – | – | – | – | −41.65% |
| – | 1300 nM | 2 h | 97700 ng·h/mL | 15.1 h | 19 h | 7420 ng/mL | O=C1c2cc(C(F)(F)F)ncc2CN1c1ccc(N[C@H]2CC[C@H](Nc3nc4cc(F)ccn4n3)C2)nc1 [Example 151, 2-(6-(((1S,3S)-3-((7-fluoro-[1,2,4]triazolo[1,5-a]pyridin-2-yl)amino)cyclopentyl)amino)pyridin-3-yl)-6-(trifluoromethyl)-2,3-dihydro-1H-pyrrolo[3,4-c]pyridin-1-one] | 138% | – | – | – | – |

The next lines start with the compound.

| SMILES | Kd (PCSK9 protein) | IC50 [1] | Time to peak tmax [4] | AUC(0-inf) [4] | half-life [4] | MRT [4] | Cmax [4] | LDLR expression level [2] | LDL-C change, Day 14 ([3]; 6 mpk) | LDL-C change, Day 14 ([3]; 3 mpk) | LDL-C change, Day 14 ([3]; 5 mpk) | LDL-C change, Day 14 ([3]; 10 mpk) |
| --- | --- | --- | --- | --- | --- | --- | --- | --- | --- | --- | --- | --- |
| O=c1ccccn1-c1ccc(N[C@H]2CC[C@H](Nc3ncc4cccn4n3)C2)nc1 [Example 20, 6′-(((1S,3S)-3-(pyrrolo[2,1-f][1,2,4]triazin-2-ylamino)cyclopentyl)amino)-2H-[1,3′-bipyridinyl]-2-one] | 2.4 nM | 14000 nM | – | – | – | – | – | 302% | – | – | – | – |
| O=c1ccccn1-c1ccc(N[C@H]2CC[C@H](Nc3nc4cc(F)ccn4n3)C2)nc1 [Example 27, 6′-((3-(((1S,3S)-7-fluoro-[1,2,4]triazolo[1,5-a]pyridin-2-yl)amino)cyclopentyl)amino)-2H-[1,3′-bipyridinyl]-2-one] | 2.6 nM | – | – | – | – | – | – | – | −31.52% | – | – | – |
| O=C1c2ncccc2CN1c1ccc(N[C@H]2CC[C@H](Nc3ncc(OC(F)F)cn3)C2)nc1 [Example 57, 6-(6-(((1S,3S)-3-((5-(difluoromethoxy)pyrimidin-2-yl)amino)cyclopentyl)amino)pyridin-3-yl)-5,6-dihydro-7H-pyrrolo[3,4-b]pyridin-7-one] | – | 22000 nM | 1 h | 41500 ng·h/mL | 5.9 h | 4.8 h | 9960 ng/mL | – | – | −46.22% | – | – |
| O=C1c2ncccc2CN1c1ccc(N[C@H]2CC[C@H](Nc3ncc(C(F)(F)F)cn3)C2)nc1 [Example 134, 6-(6-(((1S,3S)-3-((5-(trifluoromethyl)pyrimidin-2-yl)amino)cyclopentyl)amino)-3-yl)-5,6-dihydro-7H-pyrrolo[3,4-b]pyridin-7-one] | – | 2200 nM | 2 h | 76600 ng·h/mL | 4.1 h | 5.8 h | 9360 ng/mL | – | – | – | −60.65% | – |
| Cc1cc2c(cn1)CN(c1ccc(N[C@H]3CC[C@H](Nc4nc5cc(F)ccn5n4)C3)nc1)C2=O [Example 147, 2-(6-(((1S,3S)-3-((7-fluoro-[1,2,4]triazolo[1,5-a]pyridin-2-yl)amino)cyclopentyl)amino)pyridin-3-yl)-6-methyl-2,3-dihydro-1H-pyrrolo[3,4-c]pyridin-1-one] | – | 24100 nM | 2 h | 52000 ng·h/mL | 4.4 h | 4.8 h | 8230 ng/mL | – | – | −23.20% | – | – |
| Cc1cc2c(cn1)CN(c1ccc(N[C@H]3CC[C@H](Nc4nc5cc(C(F)(F)F)ccn5n4)C3)nc1)C2=O [Example 156, 6-Methyl-2-(6-(((1S,3S)-3-((7-(trifluoromethyl)-[1,2,4]triazolo[1,5-a]pyridin-2-yl)amino)cyclopentyl)amino)pyridin-3-yl)-2,3-dihydro-1H-pyrrolo[3,4-c]pyridin-1-one] | 4.8 nM | 2100 nM | 1 h | 19700 ng·h/mL | 3.6 h | 3.2 h | 5010 ng/mL | – | – | – | – | −25.97% |
| O=C1c2cccc(C(F)(F)F)c2CN1c1ccc(N[C@H]2CC[C@H](Nc3ncc(C(F)(F)F)nn3)C2)nc1 [Example 158, 4-(Trifluoromethyl)-2-(6-(((1S,3S)-3-((6-(trifluoromethyl)-1,2,4-triazin-3-yl)amino)cyclopentyl)amino)pyridin-3-yl) isoindolin-1-one] | – | 1900 nM | 4 h | 22400 ng·h/mL | 16.2 h | 19.5 h | 2320 ng/mL | – | – | – | – | −28.97% |
